Assay results reported in publication PMC3006138, “Fexinidazole – A New Oral Nitroimidazole Drug Candidate Entering Clinical Development for the Treatment of Sleeping Sickness” (PLoS Neglected Tropical Diseases, 2010).
“Also recorded” adds a separate entry of the source.

Columns and labels:
[1] = Stability of drug substance and dosing suspensions; assay type: physicochemical; settings: stability data to date
Description: page 4: […] Pharmacokinetic Report for the study No. 0403-2007 4. METHODS […] […] 4.2. […] The suspensions were stored at +4°C. […] Three samples were analyzed for each suspension. 4.3. […] Blood was taken at […] 4.4.

[2] = Irwin's test of general behaviour and body temperature; assay type: in vivo, rat
Description: Neurobehavioural safety was carried out using the Irwin's test of general behaviour and body temperature in male rats, [41]. […] General behaviour was assessed before treatment and 2 h and 24 h after vehicle or drug administration. A defined set of behavioural observations using an arbitrary intensity scale of 0 (no behavioural change) to 8 was made before treatment and 2 h and 24 h after treatment. Factors present in normal animals (e.g. alertness, mobility) were scored as 4; potentiation or depression of these factors was indicated as higher or lower integers, respectively. Factors absent in normal animals were scored from 0 (normal) to 8.
Exp. Treatment(a) Dose Number of Session (mg/kg) Animals/Group
(a) Three animals/group were dosed each day of study.
6.3.2. Allocation/Randomization
The animals were selected and distributed into experimental groups using random number tables (Fisher and Yates).
6.3.3. Dose Administration
Route and Method Oral, gastric gavage
Dosage volumes were adjusted to the individual animal body weights recorded on the day of […]
6.3.4. Dose Justification
In this study, the top dose of […]
dose went from 500 to 1000 mg/kg/day.
6.4. Experimental procedure
6.4.1. Behavioral observations
Behavior of the animals was assessed before treatment, 2 hours and 24 hours after treatment.
After treatment, animals were put in their home cages. Observation was performed in 5 steps:
• Home cage observations: piloerection, bizarre behavior, exophthalmus, respiration, tremors, twitches, convulsions
Nerviano Medical Sciences

[3] = Hepatocyte intrinsic clearance and metabolite profile; assay type: in vitro ADME, human; settings: human
Description: Fexinidazole was incubated with cryopreserved hepatocytes from male CD-1 mice, male Sprague Dawley rats, male beagle dogs, male cynomolgus monkeys, and from pooled white or African-American human donor samples (purchased commercially), at concentrations of 1 µM and 10 µM. […] The incubated samples were analyzed by LC-MS after extraction into acetonitrile.
Fexinidazole sulfoxide, lot 1106-I-0170, 99.3% purity, and fexinidazole sulfone, lot 1106-I-0171, 99.9% purity, were provided by the Sponsor.
Cryopreserved hepatocytes of five single donors, lots EHI, REL, KSE […]
ZIJ and MRS, were purchased from In Vitro Technologies Inc (Baltimore, Maryland, USA).
The certificates of analysis are reported in Appendix 1.
Reagents and solvents were of analytical grade and obtained from Sigma-Aldrich (St. Louis, […]
7.5. In Vitro Incubations
On the day of the experiment a 10 mM stock solution of fexinidazole in DMSO was prepared and, within 3 hours, aliquots of this freshly prepared solution, after suitable dilution, were added to the incubation matrix, to reach fexinidazole final concentrations of 1 and 10 µM. The final percentage of DMSO was 0.01% in the incubation samples for the […]
The cryopreserved hepatocytes were thawed according to the supplier’s procedure and the number of viable cells was determined using the Trypan Blue exclusion method. Viabilities were 92% for lot EHI, 89% for lot REL, 82% for lot KSE, 86% for lot ZIJ and 86% for lot MRS in the intrinsic clearance study. In the metabolite profile study viabilities were 91% for lot EHI, 90% for lot REL, 85% for lot KSE, 84% for lot ZIJ and 87% for lot MRS.
Afterwards, the same amount of viable cells for each donor were pooled and used for the incubations of fexinidazole.
7.5.1. Intrinsic Clearance Study […]
µM with pooled human hepatocytes (1 million cells/mL) in a final incubation volume of 1 mL Leibovitz L-15 medium, at 37°C. Incubations were performed in duplicate in a 48-well plate under shaking. Sampling was performed using an automatic liquid handling system (Multiprobe II EX, Packard). At 0, 1, 5, 10, 15, 20, 30, 60 and 120 minutes, 50 µL aliquots of the incubates were taken, then 80 µL of ice-cold acetonitrile and 20 µL of 1 µM warfarin in acetonitrile (internal standard) were added, and samples centrifuged at 2000 rpm for 20 min. The supernatant was analyzed by LC-MS/MS. […]
The chemical stability of fexinidazole was checked by incubating the compound at 37°C in the medium alone at t = 0 and 120 minutes.
For the determination of phase I and phase II activities of hepatocytes, 7-ethoxycoumarin (7-ETC) 1 µM, and 7-hydroxycoumarin (7-HC) 30 µM were used as positive controls and incubated under the same conditions as fexinidazole. Aliquots of incubates were taken at 0, 1, 5, 10, 15, 20, 30, 60 and 120 minutes and processed as fexinidazole samples.
7.5.2. Metabolite Profile Study
For metabolite profiling, fexinidazole was incubated at a concentration of 10 µM with pooled human hepatocytes (1 million cells/mL) in a final incubation volume of 2 mL Leibovitz L-15 medium, at 37°C. Aliquots of the incubation samples were taken at t = 0, 30 and 120 minutes; the metabolism was stopped by the addition of an equal volume of cold acetonitrile and the samples centrifuged at 1100 rpm for 20 min. The supernatant was stored at -20°C until analysis. Control incubations were performed with the compound in the medium alone for 120 minutes.
7.6. Analysis of the Samples of Intrinsic Clearance Study
The analysis of the samples for intrinsic clearance determination was performed by an LC-MS/MS method, using the following conditions:
HPLC Equipment and Conditions
HPLC system 1100 binary pump (Agilent, Palo Alto, USA)
Autosampler 2777 (Waters)
Analytical column Guard Column SB-C8 4.6 x 12.5 mm, 5 µm (Zorbax)
Column temperature ambient
Mobile phase A 10 mM ammonium formate pH 4.0: acetonitrile (95:5, v:v)
Mobile phase B 10 mM ammonium formate pH 4.0: acetonitrile (5:95, v:v) […]
Gradient conditions Step Total time (min) flow (µL/min) %A % B […]

## CSc1ccc(OCc2ncc([N+](=O)[O-])n2C)cc1 [Fexinidazole, 1-methyl-2-((p-(methylthio)phenoxy)methyl)-5-nitroimidazole]
[1]
  stability: very stable
[2]; 100 mg/kg, 2 hours
  Body temperature: 38.3 ± 0.3 °C
[2]; 100 mg/kg, 24 hours
  Body temperature: 38.2 ± 0.3 °C
[2]; 300 mg/kg, 2 hours
  Body temperature: 38.1 ± 0.5 °C
[2]; 300 mg/kg, 24 hours
  Body temperature: 37.9 ± 0.6 °C
[2]; 1000 mg/kg, 2 hours
  Body temperature: 38.3 ± 0.3 °C
[2]; 1000 mg/kg, 24 hours
  Body temperature: 38.1 ± 0.3 °C
[2]; 100, 300 or 1000 mg/kg po
  effects on general behaviour and body temperature: no meaningful effects; also recorded: no effects were observed
[2]; single oral dose
  No-Observed-Effect-Level on general behavior and body temperature: ≥ 1000 mg/kg
[3]
  half-life at 1 µM: 6.5 min
[3]; read-out: CLint in vitro
  CLint scaled at 1 µM: 257 mL/min/kg
  hepatocyte CLint at 1 µM: 107 µL/min/1e6 cells
